Measured values from article PMC7414126 (Scientific Reports, 2020).
Values joined by “and” are separate entries in the source; they are usually repeats but may differ in a detail not shown here. Equal values may be shown once.

How the values were obtained:
[1] = target: T1, NLuc-hH2R (Homo sapiens, UniProt P25021); assay: NanoBRET saturation binding assay
T1 construct: membrane signal peptide of the murine 5HT3A receptor (N); expressed in transfected cells
Description: KG, Wertheim, Germany). The cells were then incubated at 37 °C in a humidified atmosphere (no additional CO2) overnight. […] After 60 min incubation time at 27 °C, 10 μL of the substrate furimazine, which was diluted according to manufacturer's protocol beforehand, were added. After 5 min of equilibration time at 27 °C, the measurement was started. […] After addition of the diluted substrate, the plate was placed inside the reader for 5 min to equilibrate. […] Dissociation experiments were conducted in wells, which have been preincubated with 8 as described above for association experiments. […] All measurements were performed on a TECAN InfiniteLumi plate reader (TECAN, Grödig, Austria) at 27 °C using the Blue2 NB (460 nm ± 35 nm, bandpass) and the Red NB (> 610 nm, longpass) filter combination with an integration time of 100 ms. For the kinetic experiments, integration time was increased to 500 ms for both channels to reduce noise. BRET ratios were calculated by dividing the acceptor emission (red NB) by the donor luminescence (Blue2 NB). For all BRET binding experiments, specific binding was calculated by subtracting non-specific binding from total binding yielding the “corrected BRET ratio”. For saturation binding experiments, total and non-specific binding were fitted simultaneously using the “one-site total and nonspecific binding” fit. Specific binding was fitted accordingly applying the “one-site specific binding” fit. […] The normalized competition binding curves were then fitted with a four-parameter logistic fit yielding pIC50-values. These were transformed into pKi-values using the Cheng-Prusoff equation[38].

[2] = target: T1, NLuc-hH2R; assay: Real-time NanoBRET kinetic binding experiments
Description: The cell line stably expressing the NLuc-hH2R construct was detached from the cell culture dishes after reaching ~ 80% confluency by treatment with trypsin/EDTA (0.05%/0.2%, for 2 min at 37 °C) and was centrifuged (600×g, 5 min). The cell pellet was then resuspended in Leibovitz’ L-15 medium (L-15), supplemented with 5% FCS + 10 mM HEPES, and 1.0 × 10^5 cells/well were seeded in 70 µL (saturation and competition binding) or 80 µL (kinetic experiments) of assay medium into white 96-well cell-Grade™ plates (Brand GmbH & Co. KG, Wertheim, Germany). The cells were then incubated at 37 °C in a humidified atmosphere (no additional CO2) overnight. For saturation binding experiments, serial dilutions (tenfold concentrated) of the fluorescent ligands (8–10) and famotidine (4, 300-fold excess over the respective concentration of fluorescent ligand, non-specific binding) were prepared in dilution buffer (L-15 + 2% BSA + 10 mM HEPES). 10 µL of the fluorescent ligand dilution and 10 µL of L-15 (total binding) or the dilution of 4 (non-specific binding) were added to the cells. After 60 min incubation time at 27 °C, 10 µL of the substrate furimazine, which was diluted according to manufacturer’s protocol beforehand, were added. After 5 min of equilibration time at 27 °C, the measurement was started. Competition binding experiments were performed as described above using one fixed concentration of fluorescent ligand 8 (c = 50 nM) and varying concentrations of the competitors 1–4, 11, 12, that were added at the same time. Kinetic measurements were performed as follows: 10 µL of L-15 (for total binding) or 4 (300-fold excess, c = 15 µM, non-specific binding) were added to the cells. After addition of the diluted substrate, the plate was placed inside the reader for 5 min to equilibrate. To start association 50 µL of a threefold concentrated solution of the fluorescent ligand 8 (cfinal = 50 nM) were added to the adherent cells and the plate was measured for 60 min. Dissociation experiments were conducted in wells, which have been preincubated with 8 as described above for association experiments. To initiate dissociation, 50 µL of a fourfold concentrated solution of 4 (300-fold excess, cfinal = 15 µM) were added to the cells and the measurement was performed for 4 h. All measurements were performed on a TECAN InfiniteLumi plate reader (TECAN, Grödig, Austria) at 27 °C using the Blue2 NB (460 nm ± 35 nm, bandpass) and the Red NB (> 610 nm, longpass) filter combination with an integration time of 100 ms. For the kinetic experiments, integration time was increased to 500 ms for both channels to reduce noise. BRET ratios were calculated by dividing the acceptor emission (red NB) by the donor luminescence (Blue2 NB).
For kinetic experiments, association experiments were fitted with the “one-phase association” fit yielding kobs, whereas the dissociation experiments were fitted assuming a “one-phase decay” model resulting in koff. The association rate constant kon was calculated using the following equation: kon = (kobs − koff)/c(ligand); c(ligand) = 50 nM. Dissociation half-life t1/2 was calculated applying the following formula: t1/2 = ln(2)/koff.The kinetic equilibrium dissociation constant Kd(kin) was calculated as follows: Kd(kin) = koff/kon. The errors for kon, t1/2 and Kd(kin) were calculated according to the Gaussian law of error propagation. All experimental data were analyzed using Prism 8 software (GraphPad, San Diego, CA, USA).

[3] = Chemical stability in binding buffer (HPLC); type: physicochemical; settings: binding buffer pH 7.4, rt, 96 h incubation
Description: The chemical stability of the fluorescent H2R ligands UR-KAT478 (8), UR-KAT515 (9) and UR-KAT514 (10) was investigated at physiological pH (7.4) in binding buffer (12.5 mM MgCl2, 1 mM EDTA and 75 mM Tris/HCl, pH 7.4)^1 and in case of UR-KAT514 (10) as well in a mixture of DMSO/binding buffer 1:1. Incubation was started by addition of 27.5 μL of a 2.5 mM solution of the respective compounds in DMSO/Millipore H2O 1:1, which were freshly prepared from a 5 mM stock solution in DMSO, to 522.5 μL of binding buffer or DMSO/binding buffer 1:1 yielding a final concentration of […]. The samples were shaken for up to 4 days at 700 rpm. After indicated time periods, a 70 μL aliquot was taken and diluted with 70 µL of a mixture of MeCN, Millipore H2O and 10% aqueous TFA (60:90:1). Prior to HPLC analysis, the samples were stored at -20 °C. 50 μL of the resulting solution were analyzed by HPLC as described in the experimental section. The absorption was detected at 220 nm. The blank HPLC run was performed under identical conditions without any ligand.

[4] = target: hH2R (Homo sapiens, UniProt P25021); assay: β-Arrestin2 recruitment assay (split-luciferase complementation), HEK293T-ARRB2-H2R cells; type: cell-based; set-up: expressed in transfected cells; host or cells: HEK293T-ARRB2-H2R cell line; settings: read-out: pKb (β-arrestin2 recruitment) (converted)
hH2R, sequence (P25021 whole entry): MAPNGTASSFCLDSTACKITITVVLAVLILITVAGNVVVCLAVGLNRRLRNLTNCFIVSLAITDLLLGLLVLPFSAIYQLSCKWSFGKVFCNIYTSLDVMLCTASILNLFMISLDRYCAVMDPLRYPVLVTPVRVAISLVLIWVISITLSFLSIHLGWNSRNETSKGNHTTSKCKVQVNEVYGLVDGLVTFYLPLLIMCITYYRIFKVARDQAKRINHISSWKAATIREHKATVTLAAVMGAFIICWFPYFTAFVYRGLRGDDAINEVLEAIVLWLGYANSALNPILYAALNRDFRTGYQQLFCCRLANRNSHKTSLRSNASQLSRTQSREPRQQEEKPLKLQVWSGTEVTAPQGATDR
Description: One day prior to the experiment, the cells were detached with trypsin/EDTA (0.05%/0.2%) and were centrifuged (500 x g, 5 min). The cells were resuspended in Leibovitz’ L-15 medium + 5% FCS + 10 mM HEPES and the density of the suspension was adjusted to 1.25 x 10^6 cells/mL (agonist mode) or 1.4 x 10^6 cells/mL (antagonist mode). 80 µL (agonist mode) or 70 µL (antagonist mode) of the cell suspension were seeded in white, tissue culture-treated, flat bottom 96-well microtiter plates (Brand, Wertheim, Germany). The cells were incubated at 37 °C overnight in a water saturated atmosphere w/o additional CO2. […] In the meantime, serial dilutions of the tested compounds (10-fold concentrated with respect to the final concentration) were prepared in L-15 + 10 mM HEPES and pre-warmed to 37 °C. After the baseline-read, the dilutions of the test compounds (10 µL/well) were transferred to the 96-well plate. […] For the determination of antagonism, the dilutions of the test compounds (10 µL/well) were transferred to the 96-well plate directly after the addition of D-luciferin (as described above) and the baseline was recorded like in the agonist mode. […] Normalized data were fitted applying a four-parameter logistic fit yielding pIC50 values, which were then transformed into pKb values using the Cheng-Prusoff equation.^8 All data analysis was performed using Prism 5.0c (GraphPad, San Diego, CA, USA).

T1 sequence (P25021 whole entry): as above

## Cc1cc(/C=C/c2cc3c4c(c2)CCCN4CCC3)cc(C)[n+]1CCCCNc1c(NCCCOc2cccc(CN3CCCCC3)c2)c(=O)c1=O [Compound 8, (E)-1-(4-((3,4-Dioxo-2-((3-(3-(piperidin-1-ylmethyl)phenoxy)propyl)amino)cyclobut-1-en-1-yl)amino)butyl)-2,6-dimethyl-4-(2-(2,3,6,7-tetrahydro-1H,5H-pyrido[3,2,1-ij]quinolin-9-yl)vinyl)pyridin-1-ium]
[1]; representative NanoBRET saturation isotherm, result from single experiment, HEK293T NLuc-hH2R, read-out: Kd* (single experiment)
  Kd: 0.0294 µM
[1]; saturation binding, live HEK293T cells stably expressing NLuc-hH2R, mean ± SEM, read-out: pKd (NanoBRET) (converted)
  Kd: 0.0447 µM
[2]; 50 nM of 8
  Time to full association (fully bound to the receptor): approximately 30 min
[2]; 300-fold excess famotidine (15 µM), after 60 min preincubation with 50 nM 8
  Amount of ligand displaced within 240 min: 35–40%
[2]; Kd(kin) = koff/kon
  Kd: 0.0013 ± 0.00016 µM
[2]; association of 8, c = 50 nM, mean ± SEM, four experiments
  kobs: 0.093 ± 0.009 min⁻¹
[2]; dissociation started with famotidine 15 µM after 60 min preincubation with 50 nM 8
  koff: 3.83e-05 s⁻¹
[2]; kon = (kobs − koff)/c(ligand), c = 50 nM, read-out: kon (association rate constant) (converted)
  kon: 30000 M⁻¹ s⁻¹
[2]; t1/2 = ln(2)/koff
  Dissociation half-life t1/2: 5 h and 5.007 ± 0.3317 h
[3]
  Chemical stability (decomposition): no decomposition
[4]
  Kb: 0.0166 µM
